For eight compounds, mass density results are on record in the NIST ThermoML archive (doi:10.1021/je500420g).

Numbers after ± are expanded uncertainties.

The nature of the data set: xn = mol fraction of the nth substance listed. The conditions noted are these: 100 kPa, Liquid, Vibrating tube method.

The mass density is the mass of a sample divided by its volume.

Take `[Br-].[Cs+]` [cesium bromide] + O: the mass density reads like this: (293.15 K, x1 = 0.01) 1090.5 ± 0.2 kg/m3; (293.15 K, x1 = 0.03) 1267.9 ± 0.4 kg/m3; (293.15 K, x1 = 0.05) 1438.8 ± 0.5 kg/m3; (303.15 K, x1 = 0.01) 1086.7 ± 0.2 kg/m3; (303.15 K, x1 = 0.03) 1262.8 ± 0.4 kg/m3; (303.15 K, x1 = 0.05) 1432.6 ± 0.5 kg/m3. Moreover, the mass density reads like this: (313.15 K, x1 = 0.01) 1082.3 ± 0.3 kg/m3; (313.15 K, x1 = 0.03) 1257.3 ± 0.4 kg/m3; (313.15 K, x1 = 0.05) 1426 ± 0.5 kg/m3; (323.15 K, x1 = 0.01) 1077.6 ± 0.3 kg/m3; (323.15 K, x1 = 0.03) 1251.5 ± 0.4 kg/m3; (323.15 K, x1 = 0.05) 1419.3 ± 0.5 kg/m3. In addition, the mass density reads like this: (333.15 K, x1 = 0.01) 1072.4 ± 0.3 kg/m3; (333.15 K, x1 = 0.03) 1245.5 ± 0.4 kg/m3; (333.15 K, x1 = 0.05) 1412.4 ± 0.5 kg/m3.

On to `[Cl-].[Cs+]` [cesium chloride] + O, for which the mass density (293.15 K, x1 = 0.01) was 1069.9 ± 0.2 kg/m3; the mass density (293.15 K, x1 = 0.03) is recorded as 1208.3 ± 0.3 kg/m3; the mass density (293.15 K, x1 = 0.05) is on record as 1342.6 ± 0.4 kg/m3; the mass density (303.15 K, x1 = 0.01) was 1066.3 ± 0.2 kg/m3; the mass density (303.15 K, x1 = 0.03) worked out at 1203.6 ± 0.3 kg/m3; the mass density (303.15 K, x1 = 0.05) is given as 1337 ± 0.4 kg/m3. Besides, the mass density (313.15 K, x1 = 0.01) is given as 1062.1 ± 0.2 kg/m3; the mass density (313.15 K, x1 = 0.03) was determined as 1198.6 ± 0.3 kg/m3; the mass density (313.15 K, x1 = 0.05) is listed as 1331.2 ± 0.4 kg/m3; the mass density (323.15 K, x1 = 0.01) worked out at 1057.5 ± 0.2 kg/m3; the mass density (323.15 K, x1 = 0.03) is 1193.2 ± 0.3 kg/m3; the mass density (323.15 K, x1 = 0.05) was found to be 1325.2 ± 0.4 kg/m3. In addition, the mass density was found to be 1052.4 ± 0.2 kg/m3 (333.15 K, x1 = 0.01); 1187.7 ± 0.3 kg/m3 (333.15 K, x1 = 0.03); 1319.1 ± 0.4 kg/m3 (333.15 K, x1 = 0.05).

On to `[Cs+].[F-]` [cesium fluoride (CsF)] + O, for which the mass density runs as follows: (293.15 K, x1 = 0.01) 1070.9 ± 0.2 kg/m3; (293.15 K, x1 = 0.03) 1210.1 ± 0.3 kg/m3; (293.15 K, x1 = 0.05) 1349.9 ± 0.4 kg/m3; (303.15 K, x1 = 0.01) 1068 ± 0.2 kg/m3; (303.15 K, x1 = 0.03) 1206.2 ± 0.3 kg/m3; (303.15 K, x1 = 0.05) 1345.4 ± 0.4 kg/m3. The mass density reads like this: (313.15 K, x1 = 0.01) 1064.3 ± 0.2 kg/m3; (313.15 K, x1 = 0.03) 1201.7 ± 0.3 kg/m3; (313.15 K, x1 = 0.05) 1340.4 ± 0.4 kg/m3; (323.15 K, x1 = 0.01) 1059.9 ± 0.3 kg/m3; (323.15 K, x1 = 0.03) 1196.6 ± 0.3 kg/m3; (323.15 K, x1 = 0.05) 1334.9 ± 0.4 kg/m3. Besides, the mass density was 1053 ± 0.3 kg/m3 (333.15 K, x1 = 0.01); 1190.9 ± 0.3 kg/m3 (333.15 K, x1 = 0.03); 1329.1 ± 0.4 kg/m3 (333.15 K, x1 = 0.05).

As to `[Cs+].[I-]` [cesium iodide] + O, the mass density reads like this: (293.15 K, x1 = 0.01) 1109.5 ± 0.3 kg/m3; (293.15 K, x1 = 0.03) 1320.7 ± 0.4 kg/m3; (293.15 K, x1 = 0.05) 1519.4 ± 0.6 kg/m3; (303.15 K, x1 = 0.01) 1105.6 ± 0.3 kg/m3; (303.15 K, x1 = 0.03) 1314.9 ± 0.4 kg/m3; (303.15 K, x1 = 0.05) 1512.1 ± 0.6 kg/m3. Besides, the mass density worked out at 1101 ± 0.3 kg/m3 (313.15 K, x1 = 0.01); 1308.9 ± 0.4 kg/m3 (313.15 K, x1 = 0.03); 1504.5 ± 0.6 kg/m3 (313.15 K, x1 = 0.05); 1096 ± 0.3 kg/m3 (323.15 K, x1 = 0.01); 1302.5 ± 0.4 kg/m3 (323.15 K, x1 = 0.03); 1496.9 ± 0.6 kg/m3 (323.15 K, x1 = 0.05). For the same compound, the mass density was found to be 1090.6 ± 0.3 kg/m3 (333.15 K, x1 = 0.01); 1295.9 ± 0.4 kg/m3 (333.15 K, x1 = 0.03); 1489.1 ± 0.6 kg/m3 (333.15 K, x1 = 0.05).

Regarding `[Br-].[Li+]` [lithium bromide] + O, the mass density turned out to be 1033.5 ± 0.2 kg/m3 (293.15 K, x1 = 0.01); 1101.8 ± 0.3 kg/m3 (293.15 K, x1 = 0.03); 1171.5 ± 0.3 kg/m3 (293.15 K, x1 = 0.05); 1030.2 ± 0.2 kg/m3 (303.15 K, x1 = 0.01); 1098 ± 0.3 kg/m3 (303.15 K, x1 = 0.03); 1168 ± 0.3 kg/m3 (303.15 K, x1 = 0.05). Besides, the mass density came out at 1026.3 ± 0.2 kg/m3 (313.15 K, x1 = 0.01); 1093.9 ± 0.3 kg/m3 (313.15 K, x1 = 0.03); 1163.9 ± 0.3 kg/m3 (313.15 K, x1 = 0.05); 1022 ± 0.2 kg/m3 (323.15 K, x1 = 0.01); 1089.4 ± 0.3 kg/m3 (323.15 K, x1 = 0.03); 1159.3 ± 0.3 kg/m3 (323.15 K, x1 = 0.05). The mass density reads like this: (333.15 K, x1 = 0.01) 1017.2 ± 0.2 kg/m3; (333.15 K, x1 = 0.03) 1084.6 ± 0.3 kg/m3; (333.15 K, x1 = 0.05) 1154.3 ± 0.3 kg/m3.

For `[Cl-].[Li+]` [lithium chloride] + O, the mass density reads like this: (293.15 K, x1 = 0.01) 1012.3 ± 0.2 kg/m3; (293.15 K, x1 = 0.03) 1038.5 ± 0.2 kg/m3; (293.15 K, x1 = 0.05) 1064.1 ± 0.2 kg/m3; (303.15 K, x1 = 0.01) 1009.7 ± 0.2 kg/m3; (303.15 K, x1 = 0.03) 1035.7 ± 0.2 kg/m3; (303.15 K, x1 = 0.05) 1061.2 ± 0.2 kg/m3. Moreover, the mass density was determined as 1006.2 ± 0.2 kg/m3 (313.15 K, x1 = 0.01); 1032.3 ± 0.2 kg/m3 (313.15 K, x1 = 0.03); 1057.9 ± 0.2 kg/m3 (313.15 K, x1 = 0.05); 1002.1 ± 0.2 kg/m3 (323.15 K, x1 = 0.01); 1028.3 ± 0.2 kg/m3 (323.15 K, x1 = 0.03); 1054 ± 0.2 kg/m3 (323.15 K, x1 = 0.05). Further, the mass density (333.15 K, x1 = 0.01) came out at 997.4 ± 0.2 kg/m3; the mass density (333.15 K, x1 = 0.03) is on record as 1023.8 ± 0.2 kg/m3; the mass density (333.15 K, x1 = 0.05) is recorded as 1049.8 ± 0.2 kg/m3.

On to `[I-].[Li+]` [lithium iodide] + O, for which the mass density runs as follows: (293.15 K, x1 = 0.01) 1053.3 ± 0.2 kg/m3; (293.15 K, x1 = 0.03) 1160.8 ± 0.3 kg/m3; (293.15 K, x1 = 0.05) 1268.1 ± 0.4 kg/m3; (303.15 K, x1 = 0.01) 1049.8 ± 0.2 kg/m3; (303.15 K, x1 = 0.03) 1156.3 ± 0.3 kg/m3; (303.15 K, x1 = 0.05) 1262.7 ± 0.4 kg/m3. Also, the mass density (313.15 K, x1 = 0.01) is 1045.7 ± 0.2 kg/m3; the mass density (313.15 K, x1 = 0.03) came to 1151 ± 0.3 kg/m3; the mass density (313.15 K, x1 = 0.05) worked out at 1257.2 ± 0.4 kg/m3; the mass density (323.15 K, x1 = 0.01) is 1041.2 ± 0.2 kg/m3; the mass density (323.15 K, x1 = 0.03) was determined as 1146.1 ± 0.3 kg/m3; the mass density (323.15 K, x1 = 0.05) amounted to 1251.4 ± 0.4 kg/m3. In addition, the mass density is listed as 1036.2 ± 0.2 kg/m3 (333.15 K, x1 = 0.01); 1140.7 ± 0.3 kg/m3 (333.15 K, x1 = 0.03); 1245.5 ± 0.4 kg/m3 (333.15 K, x1 = 0.05).

Turning to `[Br-].[K+]` [potassium bromide] + O, the mass density runs as follows: (293.15 K, x1 = 0.01) 1045.7 ± 0.2 kg/m3; (293.15 K, x1 = 0.03) 1137.7 ± 0.3 kg/m3; (293.15 K, x1 = 0.05) 1227.4 ± 0.3 kg/m3; (303.15 K, x1 = 0.01) 1042.6 ± 0.2 kg/m3; (303.15 K, x1 = 0.03) 1133.7 ± 0.3 kg/m3; (303.15 K, x1 = 0.05) 1222.6 ± 0.3 kg/m3. For the same compound, the mass density (313.15 K, x1 = 0.01) came to 1038.7 ± 0.2 kg/m3; the mass density (313.15 K, x1 = 0.03) is 1129.1 ± 0.3 kg/m3; the mass density (313.15 K, x1 = 0.05) is on record as 1217.4 ± 0.3 kg/m3; the mass density (323.15 K, x1 = 0.01) stood at 1034.2 ± 0.2 kg/m3; the mass density (323.15 K, x1 = 0.03) was determined as 1123.9 ± 0.3 kg/m3; the mass density (323.15 K, x1 = 0.05) is on record as 1211.7 ± 0.3 kg/m3. In addition, the mass density (333.15 K, x1 = 0.01) is recorded as 1029.2 ± 0.2 kg/m3; the mass density (333.15 K, x1 = 0.03) came out at 1118.4 ± 0.3 kg/m3; the mass density (333.15 K, x1 = 0.05) was 1205.7 ± 0.3 kg/m3.
